Measured values: patent publication US20150299614A1, “IMPROVEMENTS IN OR RELATING TO ORGANIC COMPOUNDS” (Givaudan, S.A., priority 2012, published 2015)

Tests used:
[1] = Odour perception threshold; conditions: in air
[2] = Colour stability in fine fragrance (ethanol solution, indoor daylight); assay type: physicochemical; conditions: 1 and 0.5% wt/wt in 96% EtOH, glass vials, visual inspection
Method: A solution of the test compound (compound of formula (I) specified in the Table below) was prepared in perfumery grade ethanol (96% EtOH, 4% water) at 1 and 0.5% wt/wt. The solutions were placed in 2.5 ml transparent glass vials closed with plastic lids. The vials were placed behind a window exposed to indoor daylight. The colour of the solutions was inspected visually over a 1 month period.

[3] = Colour stability in bar soap; assay type: physicochemical; conditions: tallow toilet soap, 2% wt/wt of a 10% wt/wt solution in DPG, 1 month at 45° C.
Method: The extruded 24×8 mm soap string was cut into 8 cm pieces, which were placed in a thermostated oven for 1 month at 45° C. A control sample containing no fragrance was added to the stability test series.

[4] = system: KeratinoSens™ cell line; assay: Cytotoxicity determination using an MTT assay in the KeratinoSens assay; assay type: cell-based; conditions: 48 h, oxime: no significant cytotoxicity up to the value, Isoeugenol: cytotoxic above the value
Method: The KeratinoSens™ cell line contains a stable insertion of a Luciferase gene under the control of the ARE-element of the gene AKR1C2. The optimization of this cell line and the standard method to test chemicals has been described in detail in Emter et. al. 2010 (Emter R., Ellis G., Natsch A., 2010 “Performance of a novel keratinocyte-based reporter cell line to screen skin sensitizers in vitro. Toxicol Appl Pharmacol 245, 281-290). Cells were grown for 24 h in 96-well plates. The medium was then replaced with medium containing the test chemical and the solvent Dimethylsulfoxide (DMSO) at a final level of 1%. Each compound was tested at 12 binary dilutions in the range from 0.98 to 2000 μM. In each repetition, three parallel replicate plates were run with this same set-up and a fourth parallel plate was prepared for cytotoxicity determination using an MTT assay. Cells were incubated for 48 h with the test agents, and then luciferase activity and cytotoxicity were determined. […] For each chemical in each repetition and at each concentration, the gene induction compared to DMSO controls and the wells with statistically significant induction over the threshold of 1.5 (i.e. 50% enhanced gene activity) were determined. Furthermore the maximal fold-induction (Imax) and the EC1.5 value (concentration in μM for induction above the threshold) were calculated. […]

[5] = system: KeratinoSens™ cell line (Luciferase gene under the control of the ARE-element of the gene AKR1C2); assay: KeratinoSens assay for skin sensitization (luciferase gene induction); assay type: cell-based; conditions: for luciferase gene induction relative to the 1.5-fold threshold: 48 h incubation, 0.98 to 2000 μM, FIG. 1; for skin sensitization rating by the KeratinoSens assay: positive if EC1.5 below 1000 μM, viability above 70%, dose-response
Method: The KeratinoSens™ cell line contains a stable insertion of a Luciferase gene under the control of the ARE-element of the gene AKR1C2. The optimization of this cell line and the standard method to test chemicals has been described in detail in Emter et. al. 2010 (Emter R., Ellis G., Natsch A., 2010 “Performance of a novel keratinocyte-based reporter cell line to screen skin sensitizers in vitro. Toxicol Appl Pharmacol 245, 281-290). Cells were grown for 24 h in 96-well plates. The medium was then replaced with medium containing the test chemical and the solvent Dimethylsulfoxide (DMSO) at a final level of 1%. Each compound was tested at 12 binary dilutions in the range from 0.98 to 2000 μM. In each repetition, three parallel replicate plates were run with this same set-up and a fourth parallel plate was prepared for cytotoxicity determination using an MTT assay. Cells were incubated for 48 h with the test agents, and then luciferase activity and cytotoxicity were determined. This full procedure was repeated at least three times for each chemical. For each chemical in each repetition and at each concentration, the gene induction compared to DMSO controls and the wells with statistically significant induction over the threshold of 1.5 (i.e. 50% enhanced gene activity) were determined. Furthermore the maximal fold-induction (Imax) and the EC1.5 value (concentration in μM for induction above the threshold) were calculated. Chemicals are rated as positive (i.e. likely skin-sensitizers) in the assay if the following three criteria are fulfilled (i) The EC1.5 value is below 1000 μM in all three repetitions or in at least 2 repetitions, (ii) at the lowest concentration with a gene induction above 1.5 fold (i.e. at the EC 1.5 determining value), the cellular viability is above 70% and (iii) there is an apparent overall dose-response for luciferase induction, which is similar between the repetitions.

[6] = Colour stability in colourless consumer base; assay type: physicochemical; conditions: dosed in a colourless consumer base at 0.02%, storage 4 weeks at 45 ° C.
Method: By the term “colour stable” is meant that when dosed in a colourless consumer base at 0.02% and held under storage for 4 weeks at 45 ° C., bases containing the compounds of formula (I) remain colourless upon visual inspection. On the other hand, bases containing iso-eugenol and iso-eugenol “[…]” such as vanillin at the same concentration were discoloured, variously appearing to have yellowish, orange, […] or brown hues.

SMILES: CC(C)c1cccc(C(C)CC=O)c1 (centres unmarked) [3-(3-isopropylphenyl)butanal]
- perception threshold [1]: 0.07 ng/L

SMILES: CC/C=C\CC/C=C/C=N/OC [(1E,2E,6Z)-nona-2,6-dienal O-methyl oxime]
- perception threshold [1]: 2.94 ng/L

SMILES: CC/C=C\CC/C=C/C=O [(2E,6Z)-nona-2,6-dienal]
- perception threshold [1]: 0.06 ng/L

SMILES: CCOc1cc(C=NOC)ccc1O [Cpd I (R1 = Et, R2 = Me), 3-ethoxy-4-hydroxybenzaldehyde O-methyl oxime]
- Colour of ethanol solution after 1 month [2]: colourless
- Colour of ethanol solution after 1 month ([2]; listed as compound I): would have passed the requirements for colourless fine fragrance
- colour of soap after one month [3]: remained as control
- concentration above which cytotoxic (cell viability) [4]: > 1000 µM
- luciferase gene induction relative to the 1.5-fold threshold [5]: did not induce luciferase activity above the 1.5-fold threshold
- skin sensitization rating by the KeratinoSens assay [5]: non-sensitizing

SMILES: CO/N=C/CC(C)c1cccc(C(C)C)c1 (centres unmarked) [E)-3-(3-isopropylphenyl)butanal O-methyl oxime]
- perception threshold [1]: 22.4 ng/L

SMILES: CCOc1cc(C=O)ccc1O [Ethyl Vanillin]
- Colour of ethanol solution after 1 month [2]: yellow
- Colour of ethanol solution after 1 month ([2]; listed as ethyl vanillin): unacceptable yellow colour
- colour of soap after one month [3]: chocolate brown

SMILES: CC=Cc1ccc(O)c(OC)c1 [Isoeugenol]
- colour of consumer base upon visual inspection [6]: discoloured
- concentration above which cytotoxic (cell viability) [4]: above 500 micromolar
- luciferase gene induction relative to the 1.5-fold threshold [5]: clearly induces the gene already in the lower micromolar range
- skin sensitization rating by the KeratinoSens assay [5]: sensitizing

SMILES: COc1cc(C=O)ccc1O [Vanillin]
- Colour of ethanol solution after 1 month [2]: yellow
- Colour of ethanol solution after 1 month ([2]; listed as vanillin): unacceptable yellow colour
- colour of consumer base upon visual inspection [6]: discoloured
